Tests used:
Assay in all cases: B1 Post-emergence efficacy, glasshouse pot test
Assay type in all cases: in vivo
Details in all cases: post-emergence application, 1000 g/ha, evaluated after 13 days
[1] = tested on: Ipomoea hederacea (IPOHE)
Experimental: (§1) B1 Post-Emergence Efficacy Seeds of a variety of test species are sown in standard soil in pots:—Solanum nigrum (SOLNI), Amaranthus retoflexus (AMARE), Setaria faberi (SETFA), Alopecurus myosuroides (ALOMY), Echinochloa crus-galli (ECHCG), Ipomoea hederacea (IPOHE), Lolium perenne (LOLPE). After 8 days cultivation (post-emergence) under controlled conditions in a glasshouse (at 24/16° C., day/night; 14 hours light; 65% humidity), the plants are sprayed with an aqueous spray solution derived from the formulation of the technical active ingredient in acetone/water (50:50) solution containing 0.5% Tween 20 (polyoxyethelyene sorbitan monolaurate, CAS RN 9005-64-5). Compounds are applied at 1000 g/ha. The test plants are then grown in a glasshouse under controlled conditions in a glasshouse (at 24/16° C., day/night; 14 hours light; 65% humidity) and watered twice daily. After 13 days, the test is evaluated for the percentage damage caused to the plant. The biological activities are assessed on a five point scale (5=80-100%; 4=60-79%; 3=40-59%; 2=20-39%; 1=0-19%). A blank value in the table is indicative that the compound was not tested on that species.

Solanum nigrum (SOLNI) = tested on: Solanum nigrum (SOLNI)
Experimental: as §1

[2] = tested on: Amaranthus retoflexus (AMARE)
Experimental: as §1

Setaria faberi (SETFA) = tested on: Setaria faberi (SETFA)
Experimental: as §1

[3] = tested on: Echinochloa crus-galli (ECHCG)
Experimental: as §1

Lolium perenne (LOLPE) = tested on: Lolium perenne (LOLPE)
Experimental: as §1

Structure (SMILES) | IPOHE: percentage damage caused to the plant (five point scale) [1] | SOLNI: percentage damage caused to the plant (five point scale) (Solanum nigrum (SOLNI)) | AMARE: percentage damage caused to the plant (five point scale) [2] | SETFA: percentage damage caused to the plant (five point scale) (Setaria faberi (SETFA)) | ECHCG: percentage damage caused to the plant (five point scale) [3] | LOLPE: percentage damage caused to the plant (five point scale) (Lolium perenne (LOLPE))
Cn1nc(N)c(O)c(-c2c(Cl)ccc(Cl)c2OCc2ccccc2)c1=O [Compound 1.081] | 4 (4=60-79%) | 5 (5=80-100%) | 3 (3=40-59%) | 4 (4=60-79%) | 2 (2=20-39%) | 2 (2=20-39%)
Cn1nc([S+](C)[O-])c(O)c(-c2c(F)ccc(Cl)c2OCc2ccccc2)c1=O (stereo not drawn) [Compound 1.080] | 5 (5=80-100%) | 5 (5=80-100%) | 2 (2=20-39%) | 1 (1=0-19%) | 1 (1=0-19%) | 2 (2=20-39%)
Cn1nc(C2CC2)c(O)c(-c2c(C(F)(F)F)ccc(Cl)c2OCc2ccccc2)c1=O [Compound 1.070] | 5 (5=80-100%) | 5 (5=80-100%) | 5 (5=80-100%) | 5 (5=80-100%) | 5 (5=80-100%) | 5 (5=80-100%)
Cc1nn(C)c(=O)c(-c2c(Cl)cccc2OCc2ccccc2)c1O [Compound 1.068] | 4 (4=60-79%) | 5 (5=80-100%) | 3 (3=40-59%) | 4 (4=60-79%) | 4 (4=60-79%) | 2 (2=20-39%)
Cn1nc(C2CC2)c(O)c(-c2c(F)ccc(Cl)c2OCc2ccccc2)c1=O [Compound 1.012] | 5 (5=80-100%) | 5 (5=80-100%) | 5 (5=80-100%) | 5 (5=80-100%) | 5 (5=80-100%) | 5 (5=80-100%)
Cc1nn(C)c(=O)c(-c2c(C(F)(F)F)ccc(Cl)c2OCc2ccccc2)c1O [Compound 1.073] | 5 (5=80-100%) | 5 (5=80-100%) | 3 (3=40-59%) | 5 (5=80-100%) | 5 (5=80-100%) | 3 (3=40-59%)
CSc1nn(C)c(=O)c(-c2c(F)ccc(Cl)c2OCc2ccccc2)c1O [Compound 1.084] | 5 (5=80-100%) | 5 (5=80-100%) | 3 (3=40-59%) | 2 (2=20-39%) | 1 (1=0-19%) | 4 (4=60-79%)
Cc1nn(C)c(=O)c(-c2c(F)ccc(Cl)c2OCc2ccccc2)c1O [Compound 1.004] | 5 (5=80-100%) | 5 (5=80-100%) | 5 (5=80-100%) | 5 (5=80-100%) | 5 (5=80-100%) | 5 (5=80-100%)
Cc1nn(C)c(=O)c(-c2c(F)ccc(F)c2OCc2ccccc2)c1O [Compound 1.016] | 5 (5=80-100%) | 5 (5=80-100%) | 5 (5=80-100%) | 5 (5=80-100%) | 5 (5=80-100%) | 4 (4=60-79%)
